Values belong to the sequence of their own block, whether it stands above or below them.
Columns and labels:
Assay in all cases: pTyr-Var library bacterial peptide display kinase screen (enrichment scores)
c-Src kinase domain = c-Src kinase domain (Homo sapiens, UniProt P12931); type: biochemical; details: sheet "Src";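 also: log2 fold change in enrichment of variant over reference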
Fer kinase domain = type: biochemical, mouse; details: sheet "Fer"
c-Abl kinase domain = target: T1, c-Abl kinase domain (Mus musculus, UniProt P00520); type: biochemical;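 also: log2 fold change in enrichment of variant over reference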
T1 sequence (P00520 242-493 limits assumed): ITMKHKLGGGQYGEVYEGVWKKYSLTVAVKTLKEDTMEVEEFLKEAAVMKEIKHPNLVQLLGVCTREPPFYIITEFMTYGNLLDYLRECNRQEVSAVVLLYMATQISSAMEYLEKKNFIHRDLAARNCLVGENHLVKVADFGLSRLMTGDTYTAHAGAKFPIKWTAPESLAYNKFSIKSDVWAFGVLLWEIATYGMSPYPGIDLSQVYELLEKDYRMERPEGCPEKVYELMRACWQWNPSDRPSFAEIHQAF

EPHB1 kinase domain = type: biochemical, human; details: for Screen (variant relative to reference peptide, measured in the pTyr-Var library screen): sheet "EPHB1", variant seq vs reference seq, bacterial peptide display enrichment; for Screen: sheet EPHB1, effect of the variant peptide relative to its reference peptide in the pTyr-Var library screen (enrichment scores)
EPHB2 kinase domain = type: biochemical, human; details: sheet EPHB2
[1] = effect of the variant peptide relative to its reference peptide in the pTyr-Var library screen
[2] = variant peptide relative to its reference peptide, pTyr-Var library screen enrichment
[3] = sheet "Abl", effect of variant peptide relative to its reference peptide in pTyr-Var library screen (enrichment)
[4] = fig5-data2, sheet "Abl", Screen for the variant/reference peptide pair, pTyr-Var library
[5] = value of the variant peptide against its reference peptide in the pTyr-Var library screen with Fer
[6] = variant peptide versus its reference peptide in the pTyr-Var library screen
[7] = effect of variant peptide relative to its reference peptide in the pTyr-Var library screen (enrichment scores)

Sequence: VDGSVYKLPPS [GCK_Y413_H416P]
Screen (c-Src kinase domain; [1]): -1.181

Sequence: QQMGTYGVRAA [ICAM2_Y260_R256Q]
Screen (c-Src kinase domain; [1]): 0.6458

Sequence: KGEDFYCVTRH [FHL1_Y149_C153R]
Screen (c-Abl kinase domain; [4]): -2.042

Sequence: EIIPFYGMSSF [FNDC3B_Y175_T179S_YF]
Screen (c-Abl kinase domain; [4]): -1.124

Sequence: NVADHYRVFKP [ATP6V0D2_Y271_G272R_YF]
Screen (c-Src kinase domain; [1]): -3.184

Sequence: IDPFTYTPFGS [CYP3A4_Y432_I431T_YF]
Screen (c-Src kinase domain; [1]): -1.161
Screen (Fer kinase domain; [5]): -1.49

Sequence: DPLLTYLFPPK [LMNA_Y481_R482L]
Screen (c-Src kinase domain; [1]): 2.327

Sequence: KHCEDYVFSFN [DSC1_Y846_C848F_YF]
Screen (c-Src kinase domain; [1]): 1.064

Sequence: SVMAEYGLFRA [VSX2_Y219_G223R_YF]
Screen (c-Src kinase domain; [6]): -0.02483

Sequence: SSSPTYLDLPF [GLI3_Y168_P169L]
Screen (EPHB1 kinase domain): 3.84

Sequence: RALCHYFKLNI [ETV6_Y401_R399C_YF]
Screen (c-Abl kinase domain; [4]): 0.924

Sequence: LEQGEYALRSH [HADHB_Y244_D242G]
Screen (EPHB2 kinase domain; [7]): -1.376

Sequence: PLDGEYFTPQI [TP53_Y327_L330P]
Screen (c-Src kinase domain; [6]): -3.182
Screen (variant relative to reference peptide, measured in the pTyr-Var library screen) (EPHB1 kinase domain): -0.3708
Screen (EPHB2 kinase domain; effect of the variant relative to its reference peptide in the pTyr-Var library screen): 0.1464

Sequence: RRIHSYRGHLC [VHL_Y112_W117C]
Screen (c-Src kinase domain; [6]): -2.769
Screen (variant relative to reference peptide, measured in the pTyr-Var library screen) (EPHB1 kinase domain): -1.181

Sequence: KEKLCYVAPDF [ACTA1_Y220_L223P]
Screen (c-Src kinase domain; [1]): -1.653

Sequence: FGSGNYNVFGN [HNRNPA2B1_Y300_D302V_YF]
Screen (EPHB1 kinase domain): -1.963

Sequence: RRIHSYRGQLW [VHL_Y112_H115Q]
Screen (c-Src kinase domain; [6]): -2.232
Screen (variant relative to reference peptide, measured in the pTyr-Var library screen) (EPHB1 kinase domain): -1.797

Sequence: DPLLTYWFPPK [LMNA_Y481_R482W]
Screen (c-Src kinase domain; [1]): 3.284
Screen (EPHB1 kinase domain): 4.875
Screen (EPHB2 kinase domain; [7]): 5.36

Sequence: PQDVTYARLHS [LILRB4_Y412_Q414R]
Screen (c-Src kinase domain; [1]): -0.3004
Screen (c-Abl kinase domain; [4]): -1.045

Sequence: SDPIVYTLENI [EMR1_Y534_I533V]
Screen (c-Src kinase domain; [1]): -0.3296
Screen (Fer kinase domain; [5]): -1.778

Sequence: PLGPLYASSNT [INSR_Y992_P997T]
Screen (Fer kinase domain; [5]): -0.7776

Sequence: LTERSYSFVTT [ACTA1_Y200_G199S]
Screen (c-Abl kinase domain; [4]): 0.4799
Screen (Fer kinase domain; [5]): 1.792

Sequence: RSHRSYSCQVM [IGLL1_Y192_R189H]
Screen (c-Abl kinase domain; [4]): -0.4092

Sequence: EVDETYVPKKF [ALB_Y521_E525K]
Screen (c-Abl kinase domain; [4]): 0.9455

Sequence: GFKVRYATGSI [FGFR1_Y210_W213G_YF]
Screen (c-Abl kinase domain; [4]): 1.302

Sequence: EFTAGYNVKFD [GPX4_Y123_A120T]
Screen (c-Abl kinase domain; [4]): -0.6842

Sequence: DKATEYIQFVR [MAX_Y70_M74V_YF]
Screen (c-Abl kinase domain; [4]): 0.6462

Sequence: PLDGGYFTLQI [TP53_Y327_E326G]
Screen (c-Src kinase domain; [6]): -1.493

Sequence: LPKDLYLISQM [LARP4_Y141_S137P]
Screen (EPHB1 kinase domain): -0.9052

The remaining lines, values ahead:

Screen (Fer kinase domain; [2]): 2.568
Sequence: FDSPFYQDSLP [TSC1_Y508_R509Q]

Screen (c-Abl kinase domain; [3]): -4.72
Screen (variant relative to reference peptide, measured in the pTyr-Var library screen) (EPHB1 kinase domain): -0.06401
Sequence: HSREDYFECFQ [ZIM2_Y411_Q408R]

Screen (c-Abl kinase domain; [3]): -1.491
Sequence: DTQNSYRCATS [TSC1_Y304_G305R]

Screen (Fer kinase domain; [2]): 0.6103
Sequence: AGDGRYEVLFL [SEMA3F_Y478_A474G]

Screen (c-Abl kinase domain; [3]): 0.4767
Sequence: RRGMPYGGHGD [TGM1_Y312_R315H]

Screen (c-Abl kinase domain; [3]): -0.7143
Sequence: HLQDEYDFKCK [STAT1_Y170_D165H]

Screen (c-Abl kinase domain; [4]): 0.808
Sequence: SLNEEYAKNKT [MSH2_Y563_T564A]

Screen (c-Abl kinase domain; [4]): 0.3384
Sequence: RLNCIYFKDQT [RS1_Y165_W163C_YF]

Screen (c-Abl kinase domain; [3]): -2.688
Sequence: LEPGIYIPEDD [XPNPEP3_Y455_I450L]

Screen (Fer kinase domain; [5]): 0.1249
Sequence: QRCFVYFFSFL [PTEN_Y176_R173C_YF]

Screen (c-Abl kinase domain; [4]): -0.7051
Sequence: DVRQEYSGMIL [PLXND1_Y616_P617S]

Screen (c-Abl kinase domain; [3]): -2.672
Sequence: IVRSLYEDPED [VHL_Y185_L188P]

Screen (c-Abl kinase domain; [3]): -3.682
Screen (variant relative to reference peptide, measured in the pTyr-Var library screen) (EPHB1 kinase domain): 1.233
Sequence: TGFRPYVCPFD [YY1_Y383_D380Y_YF]

Screen (EPHB2 kinase domain; [7]): 0.2155
Sequence: HRGCLYLAIEF [TEK_Y899_Y897C_YF]

Screen (c-Abl kinase domain; [4]): -2.251
Sequence: IDAVCYFRMEN [NPHS2_Y194_I192V_YF]

Screen (c-Abl kinase domain; [3]): 2.88
Sequence: DVQNEYDSNHC [ZFYVE16_Y36_A35E]

Screen (EPHB1 kinase domain): 0.9154
Screen (EPHB2 kinase domain; [7]): 0.6095
Sequence: PKSWNYELPAT [PROM1_Y34_A31S]

Screen (c-Abl kinase domain; [3]): -2.772
Sequence: EIASHYRHLLR [ZBTB46_Y14_T11A]

Screen (variant relative to reference peptide, measured in the pTyr-Var library screen) (EPHB1 kinase domain): -1.855
Sequence: PEVSGYCHFAD [TG_Y234_C237Y_YF]

Screen (Fer kinase domain; [5]): 0.1451
Sequence: QRHFVYFFSFL [PTEN_Y176_R173H_YF]

Screen (c-Abl kinase domain; [3]): 3.605
Sequence: NGEDLYAGSTD [XRCC1_Y515_P514L]

Source: paper PMC10065799, “High-throughput profiling of sequence recognition by tyrosine kinases and SH2 domains using bacterial peptide display” (eLife, 2023)
